Like-named read-outs stand apart in the source and are kept apart here. Ends that are not written are not given here.
How the values were obtained:
[1] = system: LX 2 cells; assay: Cell viability (MTT) / apoptotic effect in LX 2 cells; type: cell-based, human
Method: (§1) LX 2 and HSC T6 (1×10^4 cells per well) cells were cultured in 96 well plates for 12 h in DMEM medium containing 10% FBS. The peptide 431/KLA fusion peptide, the mixture of peptide 431 and KLA peptide, and KIA peptide were incubated with the cells for 48 h. Cell viability was measured using MTT (3 (4,5 dimethylthiazol2 yi) 2,5 diphenyltetrazolium bromide) assay.
(§2) The proapoptotic peptide having the sequence of SEQ ID NO: 13, KLAKLAKKLAKLAK (KLA), is able to trigger mitochondrial disruption and induce cell death. However, the KLA peptide itself cannot enter cells to exert its proapoptotic activity. We therefore prepared a KLA/peptide 431 fusion peptide and examined its proapoptotic activity in LX 2 and HSC T6 cells.

[2] = system: rat hepatic stellate cells HSC T6; assay: Cellular uptake of 5 FAM labeled peptides in HSC T6 cells (flow cytometry); type: cell-based; settings: 1 h incubation; for binding affinity compared to the control peptide and other selected peptides: HSC T6 cells
Method: (§3) We examined cellular uptake of 5 FAM labeled peptides (425, 431, and 515) in human hepatic stellate cells LX 2 upon treatment with nonenzymatic cell dissociation solution and trypsin. […] We also evaluated the effect of incubation time on cellular uptake of the peptides. 5 FAM labeled peptide 431 was incubated with LX 2 cells for different incubation time points. […] Therefore, nonenzymatic cell dissociation solution and 1 h incubation time were selected to evaluate all the peptides (420, 422, 425, 431, 504, and 515) in human hepatic stellate cells LX 2 and rat hepatic stellate cells HSC T6.

[3] = system: LX 2 cells; assay: Serum protein binding study: uptake in LX 2 cells in media containing FBS; type: cell-based, human; settings: LX 2, OptiMEM and DMEM with FBS up to 10%
Source text: It is important to evaluate the stability of peptides in the presence of serum proteins, which may nonspecifically bind to IGF2R specific peptides. As a result, we evaluated the cellular uptake of 5 FAM labeled peptide 431 in LX 2 cells in the serum reduced medium OptiMEM and DMEM media containing different concentrations of FBS.

[4] = system: human hepatic stellate cells LX 2; assay: Cellular uptake of 5 FAM labeled peptides in LX 2 cells (flow cytometry); type: cell-based; settings: for binding affinity compared to the control peptide and other selected peptides: LX 2 cells
Method: as §3

[5] = system: HSC T6 cells; assay: Cell viability (MTT) / apoptotic effect in HSC T6 cells; type: cell-based, rat; settings: HSC-T6, fused to peptide-431
Method: as §1, §2

[6] = target: T1, IGF2R (Homo sapiens, UniProt P11717); assay: Phage ELISA on recombinant human IGF2R protein; type: binding; design: conducted using recombinant human IGF2R extracellular domain protein (the first, third, and fifth rounds); settings: compared to peptide insertless control phage and other selected clones
Method: The binding affinity of the twenty-eight phages was evaluated by ELISA on recombinant human IGF2R protein. […] Additionally, the particular embodiment may include more specific aspects related to the materials and techniques employed by this method, which are described with more detail in the Experiment section below.
Twenty eight phage clones were randomly selected after the fourth and fifth rounds of biopanning and cultured in 1 mL of ER2738 bacteria (growing in early stage) at 37° C. for 4.5 h. Phage DNA was extracted, purified using the DNA clean system (Promega, Madison, Wis.), and then sequenced with an ABI Genetic Analyzer 3100 (Applied Biosystems, USA). The primer used for sequencing is SEQ ID NO: 14, 5′-CCCTCATAGTTAGCGTA ACG-3′. […] One of the phages was peptide insertless. In FIG. 3B, binding affinity of the selected phage clones encoding inserted peptides was evaluated by ELISA on recombinant human IGF2R protein.

[7] = system: HSCs; assay: Biodistribution of siRNA nanocomplexes in rats and rats with liver fibrosis; type: in vivo, rat; settings: siRNA modified with Peptide-431 versus other delivery systems; tail vein, 0.065 mg/kg siRNA, 2 hrs
Method: The siRNA was labeled with Alexa Flour-647, and the nanocomplexes were prepared using neutravidin as we reported before. The free siRNA and nanocomplexes (SNCP, SNVP, SNPP) were injected into rats by tail vein at an siRNA dose of 0.065 mg/kg. After 2 hrs, the rats were sacrificed and the major organs including the liver, heart, lung, spleen, muscle, kidney, and blood were harvested for fluorescence imaging using a Xenogen IVIS imaging system.
The siRNA was labeled with Alexa Flour-647, and the nanocomplexes were prepared using neutravidin as we reported before. Liver fibrosis was inducted by injection of CCl4. The free siRNA and nanocomplexes (SNCP, SNVP, SNPP) were injected into rats with liver fibrosis by tail vein at an siRNA dose of 0.065 mg/kg. After 2 hrs, the rats were sacrificed and the major organs including the liver, heart, lung, spleen, muscle, kidney, and blood were harvested for fluorescence imaging using a small animal imaging system (Brunker MS FX Pro). FIG. 19 depicts images evaluating the biodistribution of free siRNA and the nanocomplexes in Rats with liver fibrosis.

[8] = system: HSC-T6 cells; assay: Cellular uptake of siRNA nanocomplexes in HSC-T6 cells; type: cell-based, rat; settings: siRNA nanocomplex modified with Peptide-431 (SNPP) versus free siRNA, SNCP, SNVP, 50 nM siRNA
Method: (§4) The siRNA was labeled with Alexa Flour-647, and the nanocomplexes were prepared using neutravidin as we reported before. Approximately 100,000 cells (HSC-T6, LX-2)/well were seed into 24 well plate and incubator at 37 C for 12 hrs, free siRNA and nanocomplexes (SNCP, SNVP, SNPP) were then incubated with the cells at a final siRNA concentration of 50 nM. The fluorescence intensity of the cells at different intervals was detected by FACSCalibur Flow Cytometry (BD Biosciences, Franklin Lakes, N.J.). FIG. 17A depicts an evaluation of the cellular uptake of free siRNA and the nanocomplexes in HSC-T6 cells, and FIG. 17B depicts an evaluation of the cellular uptake of free siRNA and the nanocomplexes in LX-2 cells.

[9] = system: HSC T6 cells; assay: Apparent equilibrium dissociation constant (Kd) on HSC T6 cells; type: binding, rat; settings: 5 FAM labeled peptide, 1 h at 37° C., flow cytometry
Method: (§5) We next measured the apparent equilibrium dissociation constants (Kd) of the peptides (422, 425, 431, and 515) to LX 2 and HSC T6 cells as shown in FIG. 10A and FIG. 10B, respectively. The cells were incubated with 5 FAM labeled peptides at different concentrations for 1 h at 37° C. The labeled cells were detected by flow cytometry, and the apparent Kd value was calculated using GraphPad Prism. […] The result is consistent with the cellular uptake result depicted in FIGS. 7A-7B, 8A-8G, and 9A-9G.

[10] = system: LX-2 cells; assay: Cellular uptake of siRNA nanocomplexes in LX-2 cells; type: cell-based, human; settings: siRNA nanocomplex modified with Peptide-431 (SNPP) versus free siRNA, SNCP, SNVP, 50 nM siRNA
Method: as §4

[11] = target: T1, IGF2R; assay: Specificity of peptide 431 to IGF2R: uptake in IGF2R-silenced LX 2 cells; type: cell-based; design: the expression of IGF2R in LX 2 cells was silenced using siRNA; endogenous in cells; host or cells: LX-2 human hepatic stellate cells; settings: for cellular uptake after silencing IGF2R with siRNA: LX 2, IGF2R siRNA versus scrambled siRNA
Method: In addition to affinity, we also evaluated the specificity of peptide 431 to IGF2R in LX 2 cells. For this purpose, the expression of IGF2R in LX 2 cells was silenced using siRNA As shown in FIGS. 11A-11B, the IGF2R siRNA (10 and 50 nM) dramatically knocked down the expression of IGF2R in LX 2 cells at the mRNA and protein levels.

[12] = system: LX 2 cells; assay: Apparent equilibrium dissociation constant (Kd) on LX 2 cells; type: binding, human
Method: as §5
In order to improve the binding affinity of peptide 431, […] may have the molecular structure depicted in FIG. 16A. Affinity of the dimeric peptide 431 was evaluated in LX 2 cells as described above.

For “KLAKLAKKLAKLAK (proapoptotic peptide) [KLA peptide, reference compound]”, the “apoptotic activity / cell death” value ([1]; LX 2, 48 h, MTT) was “did not exhibit apoptotic activity”.
In the case of “VHWDFRQWWQPS [Peptide-431, IGF2R-specific peptide ligand encoded by phage 431]”, the cellular uptake ([2]; 5 FAM labeled peptide, nonenzymatic cell dissociation solution, HSC T6) is reported as 12%, the “binding affinity compared to the control peptide and other selected peptides” value [2] is reported as “highest binding affinity” and the “binding affinity compared to the control peptide and other selected peptides” value ([2]; listed as Phage No. 431) is reported as “greatest binding affinity”. The “cellular uptake in presence of FBS” value [3] was “not significantly affected”, the cellular uptake ([4]; 5 FAM labeled peptide, nonenzymatic cell dissociation solution, 1 h incubation, LX 2) was 62% and the “effect of incubation time on cellular uptake” value ([4]; LX 2, different incubation time points) was “time dependent increase”. The “binding affinity compared to the control peptide and other selected peptides” value ([4]; 1 h incubation) was “highest binding affinity”, the “binding affinity compared to the control peptide and other selected peptides” value ([4]; 1 h incubation, listed as Phage No. 431) was “greatest binding affinity” and the “effect of cell detachment method on cellular uptake” value ([4]; nonenzymatic cell dissociation solution versus trypsin, LX 2) was “higher cellular uptake in nonenzymatic cell dissociation solution”. The “uptake of proapoptotic KLA peptide” value [5] was “enhances the uptake”, the “binding affinity to recombinant human IGF2R protein (phage ELISA)” value [6] was “highest binding affinity” and the “binding affinity to recombinant human IGF2R protein (phage ELISA)” value ([6]; listed as peptide-431) was “highest binding affinity and specificity”. For the same substance, the “specificity for HSCs (biodistribution)” value [7] was “highest specificity for HSCs”, the “cellular uptake of siRNA” value [8] was “highest cellular uptake of siRNA” and the Kd [9] was 12.3 µM. For the same substance, the “uptake of proapoptotic KLA peptide” value ([1]; LX-2, fused to peptide-431) was “enhances the uptake”, the “cellular uptake of siRNA” value [10] was “highest cellular uptake of siRNA” and the “cellular uptake after silencing IGF2R with siRNA” value ([11]; listed as peptide 431) was “lower uptake”. The “cellular uptake after silencing IGF2R with siRNA” value ([11]; listed as peptide-431) was “significantly reduced” and the “specificity to IGF2R on LX 2 cells” value ([11]; concluded from IGF2R silencing) was “high specificity”.
“dimeric peptide 431: dimer of Peptide-431 linked via a lysine, imaging agent coupled to the linker (FIG. 16A) (VHWDFRQWWQPS; also: dimer of two peptide chains linked via a lysine, imaging agent coupled to the linker)” was tested, and the “improvement of binding affinity (Kd) of dimer compared to monomeric peptide 431” value [12] was “approximately 9 fold” and the “improvement of binding affinity (Kd) of dimer compared to monomeric peptide 431” value ([12]; listed as Dimerization of peptide-431) was “approximately 9 fold”.

Reference: patent US10138273B2, “Peptide ligands for hepatic stellate cells” (The Curators of the University of Missouri, priority 2015, dated 2018)
